Experimental data as given in publication PMC7527219 (Science Advances, 2020).
“Also recorded” adds a separate entry of the source. Peptide text beside a SMILES is read from it.

Experiments:
[1] = b7: ref [9], [10]; b55: ref [10]; cited from earlier work
[2] = biological target: PmtCD PSM transporter (C2D2 heterotetramer) (S. aureus); experiment: MST

| Molecule | cytotoxicity (in words) [1] | stoichiometry N [2] |
| --- | --- | --- |
| CSCC[C@H](NC=O)C(=O)N[C@@H](CCC(=O)O)C(=O)N[C@@H](C)C(=O)N[C@H](C(=O)N[C@@H](C)C(=O)N[C@@H](CCCCN)C(=O)N[C@@H](CC(C)C)C(=O)N[C@@H](Cc1ccccc1)C(=O)N[C@@H](CCCCN)C(=O)N[C@@H](Cc1ccccc1)C(=O)N[C@@H](Cc1ccccc1)C(=O)N[C@@H](CCCCN)C(=O)N[C@@H](CC(=O)O)C(=O)N[C@@H](CC(C)C)C(=O)N[C@@H](CC(C)C)C(=O)NCC(=O)N[C@@H](CCCCN)C(=O)N[C@@H](Cc1ccccc1)C(=O)N[C@@H](CC(C)C)C(=O)NCC(=O)N[C@@H](CC(N)=O)C(=O)N[C@@H](CC(N)=O)C(=O)O)C(C)C [PSMα3F3A] (HELM PEPTIDE1{[O=C[*:2]].M.E.A.V.A.K.L.F.K.F.F.K.D.L.L.G.K.F.L.G.N.N}$$$$V2.0) | cytotoxic; also recorded: maintains cytotoxicity | – |
| PSMα3F3A peptide | – | > 2 |
